Consider 25 compounds from publication PMC10935252, “Synthesis and Biological Evaluation of New Dihydrofuro[3,2-b]piperidine Derivatives as Potent α-Glucosidase Inhibitors” (Molecules, 2024).

This experiment has as its target α-glucosidase from yeast. Briefly: α-Glucosidase inhibition assay. The following applies: for IC50: substrate maltose 0.5 mM, pH 6.8, 37 °C, mean ± SD of three independent experiments, read-out: IC50 against α-glucosidase from yeast. In kind it is biochemical, Baker’s yeast. Here is the method: α-Glucosidase activity was assayed by the method reported, with minor modifications. […] The reaction mixture contained 150 μL of enzyme solution, 150 μL of inhibitor, and 150 μL of substrate (maltose). The substrate and α-glucosidase (Baker’s yeast) were purchased from Sigma-Aldrich Chemical (St. Louis, MO, USA). Both the inhibitor and the substrate were first dissolved in dimethylsulfoxide (DMSO) and then diluted with Na2HPO4/NaH2PO4 buffer for a final concentration of DMSO of 5%. The enzymatic reaction was started after incubation of the enzyme (0.04 U/mL) for 10 min in the presence of the inhibitor (five different concentrations) by the addition of the substrate (0.5 mM). The mixture was incubated at 37 °C for 60 min, and the reaction was quenched in boiling water for 10 min. The supernatant was taken to determine the content of glucose by means of the glucose oxidase method using a commercial glucose kit (Sichuan Mike Biotechnology Co., Ltd., Chengdu, China). The absorption at 505 nm was measured immediately and taken as the relative rate for the hydrolysis of the substrate. The blank control (the distilled water instead of sample and enzyme solution in the process) and the negative control (distilled water instead of sample solution in the process) were also prepared. Acarbose was used as the positive control. To calculate the inhibition rate (%), the following formula was used: (controlnegative − sample)/(controlnegative − controlblank) × 100%. The entire experiment was carried out in triplicate.

One may read the IC50 as the concentration that gives 50% inhibition.

For the compound `C[C@]1(O)C[C@@H]2[C@H](O1)[C@@H](O)[C@@H](O)CN2Cc1ccc(O)c(Cl)c1` [Compound 28, (2R, 3aR, 6S, 7S, 7aS)-2,6,7-trihydroxy-2-methyl-4-(3-chloro-4-hydroxylbenzyl)-3a,7a-Dihydrofuro[3,2-b]piperidine], the 50% inhibitory concentration (IC50) was 0.5 ± 0.1 µM.

As to `C[C@]1(O)C[C@@H]2[C@H](O1)[C@@H](O)[C@@H](O)CN2Cc1ccc(O)c(F)c1` [Compound 30, (2R, 3aR, 6S, 7S, 7aS)-2,6,7-trihydroxy-2-methyl-4-(3-fluoro-4-hydroxylbenzyl)-3a,7a-Dihydrofuro[3,2-b]piperidine], the half-inhibitory concentration (IC50) turned out to be 2.6 ± 0.3 µM.

Turning to `C[C@]1(O)C[C@@H]2[C@@H](O1)[C@H](O)[C@H](O)CN2Cc1ccc(O)c(Br)c1` [Compound 18, (2R, 3aR, 6R, 7R, 7aR)-2,6,7-trihydroxy-2-methyl-4-(3-bromo-4-hydroxylbenzyl)-3a,7a-Dihydrofuro[3,2-b]piperidine], the 50% inhibitory concentration (IC50) stood at 5.5 ± 0.4 µM.

Turning to `CCOc1cc(CN2C[C@@H](O)[C@@H](O)[C@@H]3O[C@@](C)(O)C[C@H]32)ccc1O` [Compound 23, (2R, 3aR, 6R, 7R, 7aR)-2,6,7-trihydroxy-2-methyl-4-(4-hydroxyl-3-ethyoxylbenzyl)-3a,7a-Dihydrofuro[3,2-b]piperidine], the half-maximal inhibitory concentration (IC50) was 9 ± 0.6 µM.

For `C[C@]1(O)C[C@@H]2[C@@H](O1)[C@H](O)[C@H](O)CN2Cc1ccc(O)c(Cl)c1` [Compound 17, (2R, 3aR, 6R, 7R, 7aR)-2,6,7-trihydroxy-2-methyl-4-(3-chloro-4-hydroxylbenzyl)-3a,7a-Dihydrofuro[3,2-b]piperidine], the IC50 amounted to 4.9 ± 0.2 µM.

For `C[C@]1(O)C[C@@H]2[C@@H](O1)[C@H](O)[C@H](O)CN2Cc1cc(Br)c(O)c(Br)c1` [Compound 24, (2R, 3aR, 6R, 7R, 7aR)-2,6,7-trihydroxy-2-methyl-4-(3,5-dibromo-4-hydroxyl-benzyl)-3a,7a-Dihydrofuro[3,2-b]piperidine], the IC50 turned out to be 1.9 ± 0.2 µM.

For `COc1cc(CN2C[C@@H](O)[C@@H](O)[C@@H]3O[C@@](C)(O)C[C@H]32)ccc1O` [Compound 22, (2R, 3aR, 6R, 7R, 7aR)-2,6,7-trihydroxy-2-methyl-4-(4-hydroxyl-methoxylbenzyl)-3a,7a-Dihydrofuro[3,2-b]piperidine], the IC50 worked out at 10.5 ± 0.8 µM.

On to `C[C@]1(O)C[C@@H]2[C@@H](O1)[C@H](O)[C@H](O)CN2Cc1c(Cl)cc(O)cc1Cl` [Compound 21, (2R, 3aR, 6R, 7R, 7aR)-2,6,7-trihydroxy-2-methyl-4-(2,6-dichloro-4-hydroxylbenzyl)-3a,7a-Dihydrofuro[3,2-b]piperidine], for which the IC50 came out at 0.91 ± 0.1 µM.

As to `C[C@]1(O)C[C@@H]2[C@@H](O1)[C@H](O)[C@H](O)CN2Cc1ccc(O)cc1` [Compound 14, (2R, 3aR, 6R, 7R, 7aR)-2,6,7-trihydroxy-2-methyl-4-(4-hydroxylbenzyl)-3a,7a-Dihydrofuro[3,2-b]piperidine], the IC50 came to 10 ± 0.7 µM.

For the compound `C[C@]1(O)C[C@@H]2[C@H](O1)[C@@H](O)[C@@H](O)CN2Cc1cccc(O)c1` [Compound 27, (2R, 3aR, 6S, 7S, 7aS)-2,6,7-trihydroxy-2-methyl-4-(3-hydroxylbenzyl)-3a,7a-di-hydrofuro[3,2-b]piperidine], the IC50 is 3.7 ± 0.1 µM.

As for `C[C@]1(O)C[C@@H]2[C@@H](O1)[C@H](O)[C@H](O)CN2Cc1ccccc1Cl` [Compound 13, (2R, 3aR, 6R, 7R, 7aR)-2,6,7-trihydroxy-2-methyl-4-(2-chlorobenzyl)-3a,7a-Dihydrofuro[3,2-b]piperidine], the IC50 is 13 ± 0.5 µM.

Consider `C[C@]1(O)C[C@@H]2[C@@H](O1)[C@H](O)[C@H](O)CN2Cc1cccc(O)c1` [Compound 16, (2R, 3aR, 6R, 7R, 7aR)-2,6,7-trihydroxy-2-methyl-4-(3-hydroxylbenzyl)-3a,7a-Dihydrofuro[3,2-b]piperidine], for which the IC50 was above 20 µM.

For the compound `C[C@H]1O[C@H](O[C@H]2[C@H](O)[C@@H](O)[C@@H](O[C@H]3[C@H](O)[C@@H](O)C(O)O[C@@H]3CO)O[C@@H]2CO)[C@H](O)[C@@H](O)[C@@H]1N[C@H]1C=C(CO)[C@@H](O)[C@H](O)[C@H]1O` (some centres unmarked) [Acarbose, reference compound], the half-maximal inhibitory concentration (IC50) came out at 2 ± 0.2 µM.

As for `C[C@]1(O)C[C@@H]2[C@H](O1)[C@@H](O)[C@@H](O)CN2Cc1ccc(O)cc1` [Compound 25, (2R, 3aR, 6S, 7S, 7aS)-2,6,7-trihydroxy-2-methyl-4-(4-hydroxylbenzyl)-3a,7a-di-hydrofuro[3,2-b]piperidine], the 50% inhibitory concentration (IC50) came out at 8.3 ± 0.4 µM.

As to `C[C@]1(O)C[C@@H]2[C@@H](O1)[C@H](O)[C@H](O)CN2Cc1ccc(O)cc1Cl` [Compound 20, (2R, 3aR, 6R, 7R, 7aR)-2,6,7-trihydroxy-2-methyl-4-(2-chloro-4-hydroxylbenzyl)-3a,7a-Dihydrofuro[3,2-b]piperidine], the IC50 came out at 4.4 ± 0.3 µM.

As for `C[C@]1(O)C[C@@H]2[C@H](O1)[C@@H](O)[C@@H](O)CN2Cc1ccccc1O` [Compound 26, (2R, 3aR, 6S, 7S, 7aS)-2,6,7-trihydroxy-2-methyl-4-(2-hydroxylbenzyl)-3a,7a-di-hydrofuro[3,2-b]piperidine], the 50% inhibitory concentration (IC50) is above 20 µM.

As to `C[C@]1(O)C[C@@H]2[C@@H](O1)[C@H](O)[C@H](O)CN2Cc1ccccc1O` [Compound 15, (2R, 3aR, 6R, 7R, 7aR)-2,6,7-trihydroxy-2-methyl-4-(2-hydroxylbenzyl)-3a,7a-Dihydrofuro[3,2-b]piperidine], the IC50 was above 20 µM.

As to `COc1cc(CN2C[C@H](O)[C@H](O)[C@H]3O[C@@](C)(O)C[C@H]32)ccc1O` [Compound 33, (2R, 3aR, 6S, 7S, 7aS)-2,6,7-trihydroxy-2-methyl-4-(4-hydroxyl-methoxylbenzyl)-3a,7a-Dihydrofuro[3,2-b]piperidine], the IC50 was above 20 µM.

Regarding `C[C@]1(O)C[C@@H]2[C@H](O1)[C@@H](O)[C@@H](O)CN2Cc1ccc(O)c(Br)c1` [Compound 29, (2R, 3aR, 6S, 7S, 7aS)-2,6,7-trihydroxy-2-methyl-4-(3-bromo-4-hydroxylbenzyl)-3a,7a-Dihydrofuro[3,2-b]piperidine], the half-maximal inhibitory concentration (IC50) was 1.2 ± 0.1 µM.

As to `C[C@]1(O)C[C@@H]2[C@H](O1)[C@@H](O)[C@@H](O)CN2Cc1c(Cl)cc(O)cc1Cl` [Compound 32, (2R, 3aR, 6S, 7S, 7aS)-2,6,7-trihydroxy-2-methyl-4-(2,6-dichloro-4-hydroxylbenzyl)-3a,7a-Dihydrofuro[3,2-b]piperidine], the 50% inhibitory concentration (IC50) amounted to 0.07 ± 0.01 µM. For the same compound, the “times stronger activity than the positive control acarbose” value (ratio of IC50 values against α-glucosidase from yeast) amounted to 30 times.

Turning to `C[C@]1(O)C[C@@H]2[C@H](O1)[C@@H](O)[C@@H](O)CN2Cc1ccc(O)cc1Cl` [Compound 31, (2R, 3aR, 6S, 7S, 7aS)-2,6,7-trihydroxy-2-methyl-4-(2-chloro-4-hydroxylbenzyl)-3a,7a-Dihydrofuro[3,2-b]piperidine], the IC50 was determined as 1.8 ± 0.2 µM.

Consider `C[C@]1(O)C[C@@H]2[C@@H](O1)[C@H](O)[C@H](O)CN2Cc1ccc(O)c(F)c1` [Compound 19, (2R, 3aR, 6R, 7R, 7aR)-2,6,7-trihydroxy-2-methyl-4-(3-fluoro-4-hydroxylbenzyl)-3a,7a-Dihydrofuro[3,2-b]piperidine], for which the concentration for half-maximal inhibition (IC50) amounted to 5.4 ± 0.3 µM.

As to `CCOc1cc(CN2C[C@H](O)[C@H](O)[C@H]3O[C@@](C)(O)C[C@H]32)ccc1O` [Compound 34, (2R, 3aR, 6S, 7S, 7aS)-2,6,7-trihydroxy-2-methyl-4-(4-hydroxyl-3-ethyoxylbenzyl)-3a,7a-Dihydrofuro[3,2-b]piperidine], the concentration for half-maximal inhibition (IC50) was above 20 µM.

On to `CC(=O)C[C@H]1NC[C@H](O)[C@H](O)[C@H]1O` [Compound 12], for which the half-inhibitory concentration (IC50) is above 20 µM.

`CC(=O)C[C@H]1NC[C@@H](O)[C@@H](O)[C@@H]1O` [Compound 6]: the half-inhibitory concentration (IC50) is above 20 µM.
